Patent publication US11414454B2, “Compositions, methods, and systems for affinity-based protein identification and purification” (Auctus Biologies, Inc., priority 2017, dated 2022)
“And” between values parts separate entries of the source, which are not always exact repeats. Identical values can stand only once. Like-named read-outs stand apart in the source and are kept apart here.

Assays:
RPtag (large) [1] = assay: Fluorescence anisotropy Kd of rhodamine labeled RPtag (small) peptides for RPtag (large); format: binding, Thermoanaerobacter tengcongensis; details: Example 6, 1 nM rhodamine labeled native RPtag (small)
How it was run: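 N-terminally rhodamine-labeled RPtag small (50 nM or 1 nM) titrated with RPtag large in 50 mM Tris pH 8.0 with 0.005% Tween 20, 5 min to 1 h at room temperature; BSA served as non-specific binding control. Kd from fitting fluorescence anisotropy to a quadratic binding equation accounting for labeled peptide concentration.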

RPtag (large) [2] = assay: Association/dissociation kinetics of RPtag (small) peptides with RPtag (large) by fluorescence anisotropy; format: binding, Thermoanaerobacter tengcongensis
Protocol: Panel a depicts representative association rate kinetics traces varying native RPtag small. Rhodamine labeled RPtag small at the indicated concentration was incubated with unlabeled RPtag large and the association measured by fluorescence anisotropy. L-S complex concentration was calculated by the equation (r−rmin)/(rmax−rmin)*[S] where r is the measured anisotropy, rmin is the anisotropy in the absence of any RPtag large, rmax is the anisotropy measured in the presence of at saturating RPtag large, and [S] is the total concentration of RPtag small used in the experiment. […] Dashed cyan lines are simulations of the mechanism shown in f using the rate constants detailed herein. The concentrations in the simulations were multiplied by a correction factor of 0.925, which is well within the 90% purity specification of the purchased peptide.
LS complex was performed by incubating 1000 nM RPtag large with the indicated concentrations of rhodamine labeled RPtag small. At the start of the experiment, 0.1 mM unlabeled native RPtag small was added and fluorescence anisotropy monitored. Data processing was done as in panel a, except the red fits were to the single exponential decay equation y=y0+A*exp(−b*t). As expected, the initial dissociation rates were linear with respect to the LS complex.
Fitting to a line yields a rate constant (koff)=0.0091 min^−1 (FIG. 9 panel e). In good agreement, when the kinetics are fit with a first order rate law, a rate constant of 0.012±0.002 min^−1 (n=15) was observed. […] Panel e is a graph of the initial rates of the traces represented in d. Slope of the fit line is 0.0091 min^−1. Data are mean±SE (n=3).
The library of mutant RPtag(small) peptides, described above, was next analyzed to measure off rates (koff). The on rate was also calculated from measured koff and Kd (S*-LS transition), except instead of using unlabeled native peptide as the competitor, we used unlabeled Nd2,P5A,E18A (the tightest binding RPtag(small) peptide identified). […] However, there were notable exceptions. […] This indicates, without wishing to be limited, that P5 may constrain the structure of the peptide. The increased flexibility imparted to the peptide by the P5A mutation may decrease the energy barrier required for binding/unbinding.

RPtag (large) [3] = assay: Buffer additive screen, Kd by fluorescence anisotropy; format: binding, Thermoanaerobacter tengcongensis
Protocol: To determine reagent compatibility with the disclosed system, an additive screen was performed, wherein the Kd between RPtag (large) and 3 RPtag (small) peptides—native, Nd8Cd4, and Nd2p5ae18a—were tested in the presence of several common buffer additives (Table 3).

[4] = target: Bovine Serum Albumin (BSA) (Bos taurus, UniProt P02769); format: binding; details: fluorescence anisotropy, rhodamine labeled peptide, up to 10 μM BSA
Chain of Bovine Serum Albumin (BSA) (Bos taurus, UniProt P02769) (P02769 25-607): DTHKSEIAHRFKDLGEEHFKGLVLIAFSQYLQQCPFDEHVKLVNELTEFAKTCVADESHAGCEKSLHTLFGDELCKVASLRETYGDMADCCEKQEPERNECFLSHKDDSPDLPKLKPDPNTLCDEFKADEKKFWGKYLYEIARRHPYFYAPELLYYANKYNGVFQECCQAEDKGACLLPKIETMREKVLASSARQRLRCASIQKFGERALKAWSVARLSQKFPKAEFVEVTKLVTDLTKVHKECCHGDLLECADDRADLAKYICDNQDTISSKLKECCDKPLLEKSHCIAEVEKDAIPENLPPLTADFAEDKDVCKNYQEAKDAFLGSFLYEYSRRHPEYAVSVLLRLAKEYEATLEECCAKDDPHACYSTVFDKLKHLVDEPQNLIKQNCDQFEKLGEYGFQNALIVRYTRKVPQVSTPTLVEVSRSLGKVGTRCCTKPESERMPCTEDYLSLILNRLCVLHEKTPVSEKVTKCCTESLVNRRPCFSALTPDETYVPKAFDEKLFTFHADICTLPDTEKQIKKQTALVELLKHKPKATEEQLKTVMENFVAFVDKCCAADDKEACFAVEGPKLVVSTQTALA
Protocol: (§1) 50 nM of RP-Tag Small (see Sequence 3, below) with an N-terminal Rhodamine B label was incubated with increasing concentrations of either RP-Tag Large (see Sequence 2) or Bovine Serum Albumin (BSA) in 50 mM Tris pH 8.0, 150 mM NaCl, 10 mM 2-mercaptoethanol, and 0.005% Tween 20 for 5 min in black 96-well plates at room temperature.
(§2) Anisotropy was then measured, and a Kd calculated by fitting the data to the equation f=y0+(ymax−y0)*(Ptot+x+Kd−sqrt((Ptot+x+Kd)^2−4*Ptot*x))/(2*Ptot), where y0 is the baseline anisotropy, ymax is the maximum anisotropy, Ptot is the fixed concentration of labeled peptide used, x is the variable concentration of protein used, and Kd is the measured Kd.
(§3) The indicated concentrations of RPtag (large) and an anti-His tag antibody (4E3D10H2/E3 purchased from ThermoFisher Scientific) were incubated with 1 nM rhodamine labeled native RPtag (small) peptide and 6×His peptide (Rhodamine-GHHHHHH), respectively, and fluorescence anisotropy measured. BSA incubated with native rhodamine labeled RPtag(small) is included as a control for non-specific binding. Kd's were calculated according to the equation f=y0+(ymax−y0)*(Ptot+x+Kd−sqrt((Ptot+x+Kd)^2−4*Ptot*x))/(2*Ptot), where y0 is the baseline anisotropy, ymax is the maximum anisotropy, Ptot is the fixed concentration of labeled peptide used, x is the variable concentration of protein used, and Kd is the measured Kd. We measured a Kd of 0.2±0.1 nM for RPtag(large) binding RPtag(small), and a Kd of 6±1 nM for the antibody/6×His tag pair.

[5] = system: Bovine Serum Albumin (BSA); format: binding
Protocol: as §1, §2, §3

RPtag(large) = assay: pH profile of Kd by fluorescence anisotropy; format: binding, Thermoanaerobacter tengcongensis; details: buffers pH 1.5 to 13
Protocol: The Kds of Nd8,Cd4 for RPtag(large) was measured in the presence of buffers of different pHs ranging from 1.5 to 13.
For these experiments, Kds were measured by fluorescence anisotropy as described above in the following buffers, all at 100 mM with 0.005% Tween 20: glycine pH 1.5, glycine pH 2.0, glycine pH 3.0, acetate pH 4.5, 2-(N-morpholino)ethanesulfonic acid pH 6.0, tris pH 7.0, tris pH 7.5, tris pH 8.0, tris pH 8.5, borate pH 10.0, phosphate pH 11.5, phosphate pH 13.0.

[6] = system: immobilized RPtag(large) column; assay: Native elution from immobilized RPtag(large) column (3 M NaCl binding, 3 M imidazole elution); set-up: species or system Thermoanaerobacter tengcongensis; details: bound in 100 mM Tris pH 8.0, 3 M NaCl, 0.005% Tween20
From the text: Because of the observed stabilizing character of NaCl and destabilizing character of imidazole on Nd8Cd4 binding, these reagents, among others, were incorporated into a novel buffering system for use with the disclosed proteins, peptides, systems, and methods. In particular, the effect of this novel buffer on binding of RPtag (small) Nd8Cd4 to an immobilized RPtag(large) column was studied. These experiments included eluting both (1) rhodamine labeled peptide and (2) N-terminally RPtag(small) Nd8Cd4 tagged with tagRFP from a column under native conditions. Generally, native conditions is taken to mean at or near biological conditions under which many proteins are folded, e.g. pH 4-9 at moderate temperature (4° C.-30° C.) in the absence of denaturants (e.g. guanidine hydrochloride, urea, SDS). This is in contrast to denaturing conditions, which generally rely on extreme pH (e.g. ≤2) denaturants, or high temperature to unfold proteins.
Briefly, columns, as described above, were first equilibrated with 10 mL 100 mM Tris pH 8.0, 3 M NaCl, 0.005% Tween20. Next, 1 mL of 10 uM rhodamine-tagged Nd8Cd4 or tagRFP containing an N-terminal RPtag (small) Nd8Cd4 tag was applied in the same buffer. The column was then washed with 10 mL of the same buffer. Finally, bound target molecules were eluted with 10 mL of 100 mM Tris pH 8.0, 3 M imidazole, 0.005% Tween20.

[7] = system: rhodamine labeled RPtag (small); assay: Sequential boiling/recovery trials, fraction binding of RPtag (large); set-up: species or system Thermoanaerobacter tengcongensis
Protocol: The ability of the disclosed proteins and peptides to function after being subjected to thermal stress was also tested. Here again the RPtag (large) and anti-6×His antibody were selected for analysis. Briefly, the RPtag(large) or the anti-6×His antibody was subjected to sequential rounds of boiling and recovery. Specifically, the proteins were subjected to sequential rounds of: 5 min boiling in buffer, followed by recovery for 1 min on ice. After each round of boiling/recovery, the proteins were assayed for binding to their corresponding epitopes and the results plotted.
RPtag (large) and an the anti-His tag antibody (4E3D10H2/E3 purchased from ThermoFisher Scientific) were placed in a solution at about 0.1-1 μM [final] in a buffer of 50 mM Tris pH 8.0, 0.005% Tween20. The protein solutions were repeatedly heated for 5 min at 95° C. and then recovered on ice for 1 min. After each round of heating/cooling, an aliquot was taken and diluted to 100 nM, and incubated with 100 nM either rhodamine labeled RPtag (small) or rhodamine labeled 6x-His peptide (sequence: Rhodamine-GHHHHHH), and the fluorescence anisotropy measured. Fraction binding was calculated via the equation F=(r−rmin)/(r0−rmin) where F is the fraction binding, r is the measured anisotropy, rmin is the anisotropy in the absence of binding protein, and r0 is the anisotropy before any boiling trials.

RPtag(small) (Nd2Cd4) = assay: Fluorescence anisotropy Kd of RPtag(large) variants for control RPtag(small) peptide Nd2Cd4; format: binding, Thermoanaerobacter tengcongensis; details: 2 nM rhodamine labeled Nd2Cd4
Protocol: An initial Kd was measured between RPtag(large) and the PDGF-β N-terminal peptide (FIG. 16). […] Next, competition experiments were performed using the mutant RPtag(small) peptide Nd2,P5A,E18A.
Kds were measured by incubating increasing concentrations of unlabeled RPtag large mutant with either 20 nM rhodamine labeled PDGF-β n-terminal peptide or 2 nM rhodamine labeled Nd2Cd4 variant of RPtag small, as it has the same number of amino acids as the PDGF-β peptide but contains the native binding sequence. After the incubation, fluorescence anisotropy was measured, and the resultant curves were fit with the equation f=y0+(ymax−y0)*(Ptot+x+Kd−sqrt((Ptot+x+Kd)^2−4*Ptot*x))/(2*Ptot), where y0 is the baseline anisotropy, ymax is the maximum anisotropy, Ptot is the fixed concentration of labeled peptide used, x is the variable concentration of protein used, and Kd is the measured Kd. Data are presented here as Ka=1/Kd. Log transformed Ka's were then compared by one-way ANOVA relative to wt control with Holm-Sidak post hoc correction. ***p<0.001, **p<0.01, *p<0.05. data are mean±SEM (n=3-4). Buffer was 50 mM Tris pH 8.0, 0.005% Tween20. For the sake of comparison, the double mutant h122l,a253a is shown on the same axes, but was not included in the statistical analysis as the experiment was done after the initial results identified the two single mutants.

Row | Molecule | Kd (RPtag (large) [1]) | slope of initial velocity line using S (total) (RPtag (large) [2]; 1000 nM RPtag(large)) | rate constant for conversion of S to S* from linear fit of initial rate plot, S (corrected) (RPtag (large) [2]; 1000 nM RPtag(large), 0.6 to 10 nM RPtag (small)) | dissociation rate constant from first order rate law fit (RPtag (large) [2]; 0.1 mM unlabeled native RPtag small competitor, n=15) | koff (RPtag (large) [2]; LS dissociation, unlabeled competitor peptide, listed as native RPtag (small)) | kr (RPtag (large) [2]; S* to S reverse rate constant, calculated from Keq and kf, listed as native RPtag (small)) | kon (M^−1 min^−1 ) (×10^7) (RPtag (large) [2]; S*-LS transition, calculated from measured koff and Kd) | Kd (RPtag (large) [3]; Gdn-HCl (6M)) | Kd (RPtag (large) [3]; SDS (2%)) | Kd (RPtag (large) [3]; imidazole (3M)) | Kd (RPtag (large) [3]; urea (8M)) | binding to BSA ([4]; listed as RPtag (small)) | binding to BSA ([4]; listed as native RPtag (small)) | selectivity over non-specific (BSA) interaction [5] | pH of relative maximum affinity (RPtag(large)) | elution behaviour with 100 mM Tris pH 8.0, 3 M imidazole [6] | stability relative to commercially available products [7] | Kd (RPtag(small) (Nd2Cd4))
1 | GEKIPNFIPAELKLITKENVQ [native] | 0.2 nM and ~0.2 nM | 0.035 min⁻¹ | 0.091 min⁻¹ | 0.012 ± 0.002 min⁻¹ | 0.000152 s⁻¹ | 0.056 min⁻¹ | 4.3 ± 0.1 ×10^7 M^−1 min^−1 | > 10000 nM | > 10000 nM | > 10000 nM | > 10000 nM | no detectable binding | no interaction was detected | > 50,000 fold | ~8 pH | diffuse band | – | –
2 | RPtag (large): RB protein fragment a.a. 1-257 from Thermoanaerobacter tengcongensis; SEQ ID NO: 3 with tags and Cys (protein, tags and added Cys) MGSSCHHHHHHSQDPNSSSMKEGKTIGLVISTLNNPFFVTLKNGAEEKAKELGYKIIVEDSQNDSSKELSNVEDLIQQKVDVLLINPVDSDAVVTAIKEANSKNIPVITIDRSANGGDVVSHIASDNVKGGEMAAEFIAKALKGKGNVVELEGIPGASAARDRGKGFDEAIAKYPDIKIVAKQAADFDRSKGLSVMENILQAQPKIDAVFAQNDEMALGAIKAIEAANRQGIIVVGFDGTEDALKAIKEGKMAATIAQQPALMGSLGVEMADKYLK | – | – | – | – | – | – | – | – | – | – | – | – | – | – | – | – | at least 10 fold | 0.41 nM
